# Measured values reported in patent US20230091047A1 (priority 2019, published 2023).
# Where two headings read alike, the source gives them in different places.
# Columns and labels:
# [1] = tested on: HBV (HepG2.117 cell line, inducibly HBV producing); experiment: Anti-HBV activity: intracellular HBV DNA by real-time PCR in HepG2.117 cells after 3 days of treatment; type: cell-based, hepatitis B virus; conditions: read-out: EC50 (μM, mean value)
# Summary of the method: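 Inducible HBV-producing HepG2.117 line (Tet-off); 3-day exposure to serially diluted compound after induction; real-time PCR of intracellular viral DNA.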
# [2] = in vitro; type: cell-based; conditions: human, HepG2 or HepG2.117 cells, 3-days incubation (unmarked values), ATPlite; mean value
# Summary of the method: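 Luminescent ATP quantitation served as the viability endpoint following a 3- or 4-day incubation with test compounds.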
# [3] = Hepatitis B virus, HepG2.117, 72 h, HepG2.117 cells, 3 days of treatment, intracellular HBV DNA by real-time PCR, mean value
Structure (SMILES),"EC50 [1, 3] [µM]",CC50 at 3 days [2] [µM],"EC50 ([1]; HepG2.117 cells, 3 days of treatment, intracellular HBV DNA by real-time PCR, mean value) [µM]","EC50 ([1]; Hepatitis B virus, HepG2.117, 72 h) [µM]"
"COc1ccc(CN(CCO)c2nc3c(c(=O)[nH]2)CCN(C(=O)c2ccc(Cl)c(Cl)c2)C3)cc1 [Compound C91, 7-(3,4-dichlorobenzoyl)-2-{(2-hydroxyethyl)[(4-methoxyphenyl)methyl]amino}-5,6,7,8-tetrahydropyrido[3,4-d]pyrimidin-4(3H)-one]",8.92,22.2,,
"COc1ccc(C(CCO)Nc2nc3c(c(=O)[nH]2)CCN(C(=O)c2ccc(Cl)c(Cl)c2)C3)cc1 (centres unmarked) [Compound C92, 7-(3,4-dichlorobenzoyl)-2-{[3-hydroxy-1-(4-methoxyphenyl)propyl]amino}-5,6,7,8-tetrahydropyrido[3,4-d]pyrimidin-4(3H)-one]",7.09,24.8,,
"COc1ccc(CNc2nc3c(c(=O)n2C2CCOCC2)CCN(C(=O)c2ccc(Cl)c(Cl)c2)C3)cc1 [Compound C93, 7-(3,4-dichlorobenzoyl)-2-{[(4-methoxyphenyl)methyl]amino}-3-(oxan-4-yl)-5,6,7,8-tetrahydropyrido[3,4-d]pyrimidin-4(3H)-one]",1.73,32,,
"COc1ccc(CNc2nc3c(c(=O)[nH]2)CC(c2ccc(F)cc2)N(C(=O)c2ccc(Cl)c(Cl)c2)C3)cc1 (centres unmarked) [Compound C94, 7-(3,4-dichlorobenzoyl)-6-(4-fluorophenyl)-2-{[(4-methoxyphenyl)methyl]amino}-5,6,7,8-tetrahydropyrido[3,4-d]pyrimidin-4(3H)-one]",0.77,> 50,,
"COc1ccccc1-n1c(N)nc2c(c1=O)CC(C)N(C(=O)c1ccc(Cl)c(Cl)c1)C2 (centres unmarked) [Compound C95, 2-amino-7-(3,4-dichlorobenzoyl)-3-(2-methoxyphenyl)-6-methyl-5,6,7,8-tetrahydropyrido[3,4-d]pyrimidin-4(3H)-one]",1.02,> 50,,
"COc1ccc(CNc2nc3c(c(=O)n2-c2cccnc2C)CCN(C(=O)c2ccc(Cl)c(Cl)c2)C3)cc1 [Compound C96, 7-(3,4-dichlorobenzoyl)-2-{[(4-methoxyphenyl)methyl]amino}-3-(2-methylpyridin-3-yl)-5,6,7,8-tetrahydropyrido[3,4-d]pyrimidin-4(3H)-one]",0.65,24.3,,
"CC(C)N(CCO)c1nc2c(c(=O)[nH]1)CCN(C(=O)c1ccc(Cl)c(Cl)c1)C2 [Compound C97, 7-(3,4-dichlorobenzoyl)-2-[(2-hydroxyethyl)(propan-2-yl)amino]-5,6,7,8-tetrahydropyrido[3,4-d]pyrimidin-4(3H)-one]",3.22,> 50,,
"O=C(c1ccc(Cl)c(Cl)c1)N1CCc2c(nc(NC(CO)CO)[nH]c2=O)C1 [Compound C98, 7-(3,4-dichlorobenzoyl)-2-[(1,3-dihydroxypropan-2-yl)amino]-5,6,7,8-tetrahydropyrido[3,4-d]pyrimidin-4(3H)-one]",36.5,> 50,,
"Cc1ncccc1-n1c(NC(C)C)nc2c(c1=O)CCN(C(=O)c1ccc(Cl)c(Cl)c1)C2 [Compound C99, 7-(3,4-dichlorobenzoyl)-3-(2-methylpyridin-3-yl)-2-[(propan-2-yl)amino]-5,6,7,8-tetrahydropyrido[3,4-d]pyrimidin-4(3H)-one]",2.05,28.3,,
"CC(C)Nc1nc2c(c(=O)n1-c1ccc(S(C)(=O)=O)cc1)CC(C)N(C(=O)c1ccc(Cl)c(Cl)c1)C2 (centres unmarked) [Compound C100, 7-(3,4-dichlorobenzoyl)-3-[4-(methanesulfonyl)phenyl]-6-methyl-2-[(propan-2-yl)amino]-5,6,7,8-tetrahydropyrido[3,4-d]pyrimidin-4(3H)-one]",0.51,> 25,,
"CC(C)Nc1nc2c(c(=O)n1-c1ccc(S(C)(=O)=O)cc1)C[C@@H](C)N(C(=O)c1ccc(Cl)c(Cl)c1)C2 [Compound C100A, (6R)-7-(3,4-dichlorobenzoyl)-3-[4-(methanesulfonyl)phenyl]-6-methyl-2-[(propan-2-yl)amino]-5,6,7,8-tetrahydropyrido[3,4-d]pyrimidin-4(3H)-one]",,> 50,0.27,
"CC(C)Nc1nc2c(c(=O)n1-c1ccc(S(C)(=O)=O)cc1)C[C@H](C)N(C(=O)c1ccc(Cl)c(Cl)c1)C2 [Compound C100B, (6S)-7-(3,4-dichlorobenzoyl)-3-[4-(methanesulfonyl)phenyl]-6-methyl-2-[(propan-2-yl)amino]-5,6,7,8-tetrahydropyrido[3,4-d]pyrimidin-4(3H)-one]",10.1,> 50,,
"COc1ccc(CNc2nc3c(c(=O)n2-c2ccc(S(C)(=O)=O)nc2)CCN(C(=O)c2ccc(Cl)c(Cl)c2)C3)cc1 [Compound C102, 7-(3,4-dichlorobenzoyl)-3-[6-(methanesulfonyl)pyridin-3-yl]-2-{[(4-methoxyphenyl)methyl]amino}-5,6,7,8-tetrahydropyrido[3,4-d]pyrimidin-4(3H)-one]",0.39,> 50,,
"COc1ccc(CNc2nc3c(c(=O)[nH]2)CCN(C(=O)c2ccc(Cl)c(C#N)c2)C3)cc1 [Compound C103, 2-chloro-5-[2-{[(4-methoxyphenyl)methyl]amino}-4-oxo-4,5,6,8-tetrahydropyrido[3,4-d]pyrimidine-7(3H)-carbonyl]benzonitrile]",18.3,> 50,,
"COc1ccc(CNc2nc3c(c(=O)[nH]2)CCN(C(=O)c2ccc(Br)c(C)c2)C3)cc1 [Compound C104, 7-(4-bromo-3-methylbenzoyl)-2-{[(4-methoxyphenyl)methyl]amino}-5,6,7,8-tetrahydropyrido[3,4-d]pyrimidin-4(3H)-one]",1.8,24.1,,
"COc1ccc(CNc2nc3c(c(=O)[nH]2)CCN(C(=O)c2ccc(Br)c(C#N)c2)C3)cc1 [Compound C105, 2-bromo-5-[2-{[(4-methoxyphenyl)methyl]amino}-4-oxo-4,5,6,8-tetrahydropyrido[3,4-d]pyrimidine-7(3H)-carbonyl]benzonitrile]",6.81,> 50,,
"COc1ccc(CNc2nc3c(c(=O)[nH]2)CCN(C(=O)c2ccc(Cl)c(F)c2)C3)cc1 [Compound C106, 7-(4-chloro-3-fluorobenzoyl)-2-{[(4-methoxyphenyl)methyl]amino}-5,6,7,8-tetrahydropyrido[3,4-d]pyrimidin-4(3H)-one]",21.1,27.1,,
"COc1ccc(CNc2nc3c(c(=O)n2-c2ccn[nH]2)CCN(C(=O)c2ccc(Cl)c(Cl)c2)C3)cc1 [Compound C107, 7-(3,4-dichlorobenzoyl)-2-{[(4-methoxyphenyl)methyl]amino}-3-(1H-pyrazol-5-yl)-5,6,7,8-tetrahydropyrido[3,4-d]pyrimidin-4(3H)-one]",1.78,22.6,,
"COc1ccc(CNc2nc3c(c(=O)n2-c2ccnn2C)CCN(C(=O)c2ccc(Cl)c(Cl)c2)C3)cc1 [Compound C108, 7-(3,4-dichlorobenzoyl)-2-{[(4-methoxyphenyl)methyl]amino}-3-(1-methyl-1H-pyrazol-5-yl)-5,6,7,8-tetrahydropyrido[3,4-d]pyrimidin-4(3H)-one]",1.87,26.5,,
"COc1ccc(CNc2nc3c(c(=O)n2-c2ccc(S(C)(=O)=O)cc2)CC(c2ccc(F)cc2)N(C(=O)c2ccc(Cl)c(Cl)c2)C3)cc1 (centres unmarked) [Compound C109, 7-(3,4-dichlorobenzoyl)-6-(4-fluorophenyl)-3-[4-(methanesulfonyl)phenyl]-2-{[(4-methoxyphenyl)methyl]amino}-5,6,7,8-tetrahydropyrido[3,4-d]pyrimidin-4(3H)-one]",,> 50,,2.11
"CC(C)Nc1nc2c(c(=O)n1-c1ccc(S(C)(=O)=O)cc1)CC(c1ccc(F)cc1)N(C(=O)c1ccc(Cl)c(Cl)c1)C2 (centres unmarked) [Compound C110, 7-(3,4-dichlorobenzoyl)-6-(4-fluorophenyl)-3-[4-(methanesulfonyl)phenyl]-2-[(propan-2-yl)amino]-5,6,7,8-tetrahydropyrido[3,4-d]pyrimidin-4(3H)-one]",> 50,> 50,,
"COc1ccc(CNc2nc3c(c(=O)n2CCNS(C)(=O)=O)CCN(C(=O)c2ccc(Cl)c(Cl)c2)C3)cc1 [Compound C111, N-{2-[7-(3,4-dichlorobenzoyl)-2-{[(4-methoxyphenyl)methyl]amino}-4-oxo-5,6,7,8-tetrahydropyrido[3,4-d]pyrimidin-3(4H)-yl]ethyl}methanesulfonamide]",7.64,> 50,,
"CC(C)Nc1nc2c(c(=O)n1CCNS(C)(=O)=O)CCN(C(=O)c1ccc(Cl)c(Cl)c1)C2 [Compound C112, N-{2-[7-(3,4-dichlorobenzoyl)-4-oxo-2-[(propan-2-yl)amino]-5,6,7,8-tetrahydropyrido[3,4-d]pyrimidin-3(4H)-yl]ethyl}methanesulfonamide]",11.5,> 50,,
"COc1ccc(CNc2nc3c(c(=O)n2-c2cnccc2C)CCN(C(=O)c2ccc(Cl)c(Cl)c2)C3)cc1 [Compound C113, 7-(3,4-dichlorobenzoyl)-2-{[(4-methoxyphenyl)methyl]amino}-3-(4-methylpyridin-3-yl)-5,6,7,8-tetrahydropyrido[3,4-d]pyrimidin-4(3H)-one]",0.65,19.4,,
"Cc1ccncc1-n1c(NC(C)C)nc2c(c1=O)CCN(C(=O)c1ccc(Cl)c(Cl)c1)C2 [Compound C114, 7-(3,4-dichlorobenzoyl)-3-(4-methylpyridin-3-yl)-2-[(propan-2-yl)amino]-5,6,7,8-tetrahydropyrido[3,4-d]pyrimidin-4(3H)-one]",1.78,> 50,,
